Here are results for 1 compound from ChEMBL document CHEMBL1158002, “Aurantoside C, a new tetramic acid glycoside from the sponge Homophymia conferta” (J Nat Prod, 1999).

In brackets after ≈: the same amount, converted by molar mass.

The series is described as follows: Toxicity against brine shrimp. It is filed as organism-based. To be noted: artemia, in vivo.

In general, LC50 refers to the concentration that kills 50% of the test population. The compound `C/C(Cl)=C/C=C/C(Cl)=C/C=C/C=C/C=C/C=C/C(O)=C1\C(=O)[C@H](CC(N)=O)N([C@@H]2OC[C@@H](O)[C@H](O)[C@H]2O[C@@H]2O[C@H](CO)[C@@H](O[C@@H]3O[C@H](C)[C@@H](O)[C@@H]3O)[C@@H]2O)C1=O` [AURANTOSIDE C] returned an LC50 of 50 µg/mL (≈ 60.3 µM).
